No end group written: not given here.
What was measured:
Details in all cases: level of binding: >0.5, 0.25-0.5, <0.25
[1] = target: MHC class I allele A*0101 (A1) (Homo sapiens, UniProt P04439, A114D/A174V/A182V/D101N/D185E/E176A/E190D/L180R/Q94H/R68K/S129P/T187R/V100A/V91M/W191G); assay: iScore multi-parametric analysis, A*0101; type: binding
Summary of the method: (§1)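 Read-out is the iScore, a composite of complex stability (half-life) and ED50 describing how well each peptide reconstitutes a stable complex with the HLA class I molecule. For A*0201, scores above 0.5 denote good binding, 0.25–0.5 medium and below 0.25 poor.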

[2] = target: MHC class I allele A*0201 (A2) (Homo sapiens, UniProt P04439, D140Y/D185E/D98H/E176V/E277Q/G131W/G231S/I119V/I121R/I166T/I218V/L300P/L318F/N151K/N90K/P208A/P217A/Q86G/Q94H/R138H/R169H/T345S); assay: iScore multi-parametric analysis, A*0201; type: binding
Summary of the method: as §1

[3] = target: MHC class I allele B*0702 (B7) (Homo sapiens, UniProt P01889); assay: iScore multi-parametric analysis, B*0702
Summary of the method: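 Ranking score combining ED50 and stability half-life of peptide-MHC complexes, giving one measure of binding quality per peptide. Bands: <0.25 poor, 0.25–0.5 medium, >0.5 good quality binding.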

[4] = target: MHC class I allele A*0301 (A3) (Homo sapiens, UniProt P04439); assay: iScore multi-parametric analysis, A*0301; type: binding
Summary of the method: as §1

Sequence: SLVSLTYVS [Peptide 123]
- iScore, MHC Class I Molecule A*0101 [1]: 0
- iScore, MHC Class I Molecule A*0201 [2]: 0.206
- iScore, MHC Class I Molecule B*0702 [3]: 0
- iScore, MHC Class I Molecule A*0301 [4]: 0

Sequence: IKKWMHNIR [Peptide 191]
- iScore, MHC Class I Molecule A*0101 [1]: 0
- iScore, MHC Class I Molecule A*0201 [2]: 0.181
- iScore, MHC Class I Molecule B*0702 [3]: 0
- iScore, MHC Class I Molecule A*0301 [4]: 0

Sequence: LPRDVLAQL [Peptide 113]
- iScore, MHC Class I Molecule A*0101 [1]: 0
- iScore, MHC Class I Molecule A*0201 [2]: 0
- iScore, MHC Class I Molecule B*0702 [3]: 0.305
- iScore, MHC Class I Molecule A*0301 [4]: 0

Sequence: LSNNSLVSL [Peptide 121]
- iScore, MHC Class I Molecule A*0101 [1]: 0
- iScore, MHC Class I Molecule A*0201 [2]: 0.116
- iScore, MHC Class I Molecule B*0702 [3]: 0.112
- iScore, MHC Class I Molecule A*0301 [4]: 0

Sequence: LAVLPAGAF [Peptide 52]
- iScore, MHC Class I Molecule A*0101 [1]: 0
- iScore, MHC Class I Molecule A*0201 [2]: 0.074
- iScore, MHC Class I Molecule B*0702 [3]: 0.049
- iScore, MHC Class I Molecule A*0301 [4]: 0

Sequence: CVNRNLTEV [Peptide 39]
- iScore, MHC Class I Molecule A*0101 [1]: 0
- iScore, MHC Class I Molecule A*0201 [2]: 0.05
- iScore, MHC Class I Molecule B*0702 [3]: 0.093
- iScore, MHC Class I Molecule A*0301 [4]: 0

Sequence: LLGWVSSSS [Peptide 13]
- iScore, MHC Class I Molecule A*0101 [1]: 0
- iScore, MHC Class I Molecule A*0201 [2]: 0.243
- iScore, MHC Class I Molecule B*0702 [3]: 0
- iScore, MHC Class I Molecule A*0301 [4]: 0

Sequence: AVSAQPPLP [Peptide 26]
- iScore, MHC Class I Molecule A*0101 [1]: 0
- iScore, MHC Class I Molecule A*0201 [2]: 0.062
- iScore, MHC Class I Molecule B*0702 [3]: 0
- iScore, MHC Class I Molecule A*0301 [4]: 0

Sequence: LTNLSSNSD [Peptide 206]
- iScore, MHC Class I Molecule A*0101 [1]: 0
- iScore, MHC Class I Molecule A*0201 [2]: 0.027
- iScore, MHC Class I Molecule B*0702 [3]: 0
- iScore, MHC Class I Molecule A*0301 [4]: 0

Sequence: TWLKETEVV [Peptide 154]
- iScore, MHC Class I Molecule A*0101 [1]: 0
- iScore, MHC Class I Molecule A*0201 [2]: 0.184
- iScore, MHC Class I Molecule B*0702 [3]: 0
- iScore, MHC Class I Molecule A*0301 [4]: 0

Sequence: TLAELQGLP [Peptide 139]
- iScore, MHC Class I Molecule A*0101 [1]: 0
- iScore, MHC Class I Molecule A*0201 [2]: 0.083
- iScore, MHC Class I Molecule B*0702 [3]: 0
- iScore, MHC Class I Molecule A*0301 [4]: 0

Sequence: YLNRKGIKK [Peptide 188]
- iScore, MHC Class I Molecule A*0101 [1]: 0
- iScore, MHC Class I Molecule A*0201 [2]: 0.118
- iScore, MHC Class I Molecule B*0702 [3]: 0.089
- iScore, MHC Class I Molecule A*0301 [4]: 0.065

Sequence: AARTVKCVN [Peptide 36]
- iScore, MHC Class I Molecule A*0101 [1]: 0
- iScore, MHC Class I Molecule A*0201 [2]: 0.115
- iScore, MHC Class I Molecule B*0702 [3]: 0.059
- iScore, MHC Class I Molecule A*0301 [4]: 0

Sequence: RALQGLRRL [Peptide 104]
- iScore, MHC Class I Molecule A*0101 [1]: 0
- iScore, MHC Class I Molecule A*0201 [2]: 0.168
- iScore, MHC Class I Molecule B*0702 [3]: 0.078
- iScore, MHC Class I Molecule A*0301 [4]: 0.027

Sequence: VLPAGAFAR [Peptide 53]
- iScore, MHC Class I Molecule A*0101 [1]: 0
- iScore, MHC Class I Molecule A*0201 [2]: 0.081
- iScore, MHC Class I Molecule B*0702 [3]: 0
- iScore, MHC Class I Molecule A*0301 [4]: 0.027

Sequence: YEINADPRL [Peptide 202]
- iScore, MHC Class I Molecule A*0101 [1]: 0
- iScore, MHC Class I Molecule A*0201 [2]: 0.077
- iScore, MHC Class I Molecule B*0702 [3]: 0
- iScore, MHC Class I Molecule A*0301 [4]: 0

Reference: patent US8147838B2, “Peptide” (priority 2005, dated 2012)
